The assay deals with T1, full-length Tau (human Tau40wt) (Homo sapiens, UniProt P10636).
T1 construct: gene MAPT; full-length recombinant Tau (Tau40wt, 441 residues)
As to the kind of experiment: isothermal titration calorimetry ([…] Tau titrated with […] EGCG). It counts as binding.

T1 sequence (P10636 1-441 isoform P10636-8): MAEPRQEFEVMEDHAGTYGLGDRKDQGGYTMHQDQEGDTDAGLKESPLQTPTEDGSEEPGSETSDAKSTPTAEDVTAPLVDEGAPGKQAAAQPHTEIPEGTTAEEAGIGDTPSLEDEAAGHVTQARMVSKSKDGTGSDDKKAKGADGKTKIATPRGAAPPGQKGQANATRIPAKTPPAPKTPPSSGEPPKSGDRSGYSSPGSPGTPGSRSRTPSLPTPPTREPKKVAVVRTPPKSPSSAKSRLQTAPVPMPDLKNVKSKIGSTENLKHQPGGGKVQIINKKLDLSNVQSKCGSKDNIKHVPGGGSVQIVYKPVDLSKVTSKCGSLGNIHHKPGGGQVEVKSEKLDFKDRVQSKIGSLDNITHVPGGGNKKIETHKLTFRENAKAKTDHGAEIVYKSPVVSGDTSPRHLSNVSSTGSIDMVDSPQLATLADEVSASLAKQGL

In the case of `O=C(O[C@@H]1Cc2c(O)cc(O)cc2O[C@@H]1c1cc(O)c(O)c(O)c1)c1cc(O)c(O)c(O)c1` [EGCG], the equilibrium dissociation constant (Kd) (as a rule, the equilibrium constant for the complex coming apart) came to 74 nM.
